Data from patent publication US12398154B2, “Azaquinazoline pan-KRas inhibitors” (Mirati Therapeutics, Inc., priority 2020, dated 2025).
pIC50: −log10 of the molar value.

Key:
KRas G12D = KRas G12D (Homo sapiens, UniProt P01116, G12D); assay: biochemical;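 also: TR-FRET displacement binding assay on KRas, read after a one-hour incubation at room temperature, IC50 fitted from percent-of-control values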
Experimental: (§1) The ability of a compound to bind to KRas was measured using a TR-FRET displacement assay. […] After a 60-minute incubation at room temperature, the reaction was measured using a BMG LABTECH CLARIO star Plus via TR-FRET. […] The POC values were fit to a 4-parameter IC50 equation and the IC50 value reported.

KRas G12V = KRas G12V (Homo sapiens, UniProt P01116, G12V); assay: biochemical;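 also: KRas binding measured by TR-FRET displacement at room temperature, IC50 fitted from percent of control values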
Experimental: as §1

KRas G12R = KRas G12R (Homo sapiens, UniProt P01116, G12R); assay: biochemical;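 also: TR-FRET displacement assay of compound binding to KRas, read after one hour at room temperature, potency from a four-parameter fit of percent-of-control values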
Experimental: as §1

KRas G12C = KRas G12C (Homo sapiens, UniProt P01116, G12C); assay: biochemical;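 also: binding to KRas assessed by TR-FRET displacement after one hour incubation at room temperature, potency fitted from percent-of-control values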
Experimental: as §1

KRas WT = KRas WT (Homo sapiens, UniProt P01116); assay: biochemical;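 also: binding to KRas read as TR-FRET displacement after a one-hour room-temperature incubation, IC50 derived from percent-of-control values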
Experimental: as §1

pERK in MKN1 cells = assay: Inhibition of KRas phosphorylation of ERK (Cisbio HTRF pERK assay); settings: Homo sapiens, MKN-1, 3 h, read-out: Inhibition (HTRF IC50) of KRas-mediated Phosphorylation of ERK, MKN1
Experimental: (§2) To harvest cells from flask using 0.05% Trypsin/EDTA solution. Add 10 mL of media to stop trypsinizing. Pipette the cells into a conical bottom 50 mL centrifuge tube and centrifuge 5 min×1000 rpm. • 2. Re-suspend the cell pellet in media, take a cell count, and then adjust the cell density using fresh media. • 3. Seed 6,000 cells into cell culture plate with 50 μL media. […] Incubate cell plate overnight in a 37° C., 5% CO2 incubator. • Compound titrations • 1. Use Tecan to complete the compound addition. Compounds start from 10 uM top, 3-fold dilution, and 10 doses. The final DMSO concentration is 0.8%. Dispensed 0.2 uM Trametinib as Min control. • 2. Incubate cell plate for 3 hrs in the incubator. • Detection with cisbio pERK HTRF kit • 1. […] At the end of the compound treatment, flick-off the media. • 3. Add 35 μL of lysis buffer per well using a Multidrop Combi. Then place on a plate agitator shaking at 300 rpm at 4° C. for 40 mins. • 4. Make up the HTRF antibody buffer. For each assay plate, mix 50 μL of d2-conjugate antibody with 950 μL of detection buffer. Similarly, mix 50 μL of Cryptate antibody with 950 μL of detection buffer. Then mix the two diluted antibodies together. • 5. Dispense 3.4 μL the antibody buffer to wells of an empty assay plate. Seal the plate and centrifuge plate 30 sec×1000 rpm. • 6. At the end of the 4° C. lysis, centrifuge the lysate plates 3 mins×1500 rpm. • 7. Use the Bravo to transfer 13.6 μL of lysate from cell culture plate to assay plate.
(§3) Then incubate assay plate for 2 hrs at room temperature. […] At the end of incubation, read plate on the Envision after centrifuging plate 30 sec× • 1000 rpm.

pERK in PSN1 cells = assay: as above; settings: Homo sapiens, PSN1, 3 h, read-out: Inhibition (HTRF IC50) of KRas-mediated Phosphorylation of ERK, PSN1
pERK in ASPC1 cells = assay: as above; settings: Homo sapiens, ASPC1, read-out: Inhibition (HTRF IC50) of KRas-mediated Phosphorylation of ERK, AsPC-1
pERK in H727 cells = assay: as above; settings: Homo sapiens, NCI-H727, read-out: Inhibition (HTRF IC50) of KRas-mediated Phosphorylation of ERK, H727
pERK in A549 cells = assay: as above; settings: Homo sapiens, A549, read-out: Inhibition (HTRF IC50) of KRas-mediated Phosphorylation of ERK, A549
pERK in H460 cells = assay: as above; settings: Homo sapiens, NCI-H460, read-out: Inhibition (HTRF IC50) of KRas-mediated Phosphorylation of ERK, H460
Experimental: as §2, §3

pERK in HCT116 cells = assay: as above; settings: Homo sapiens, HCT-116, read-out: Inhibition (HTRF IC50) of KRas-mediated Phosphorylation of ERK, HCT116
pERK in H358 cells = assay: as above; settings: Homo sapiens, NCI-H358, read-out: Inhibition (HTRF IC50) of KRas-mediated Phosphorylation of ERK, H358

Sequence of KRas G12D (P01116 1-169 isoform P01116-2 G12D): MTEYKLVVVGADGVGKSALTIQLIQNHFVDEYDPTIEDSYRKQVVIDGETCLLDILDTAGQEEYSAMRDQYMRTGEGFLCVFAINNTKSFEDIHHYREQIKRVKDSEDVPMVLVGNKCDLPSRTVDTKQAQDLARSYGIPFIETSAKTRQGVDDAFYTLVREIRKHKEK
Sequence of KRas G12R (P01116 1-169 isoform P01116-2 G12R): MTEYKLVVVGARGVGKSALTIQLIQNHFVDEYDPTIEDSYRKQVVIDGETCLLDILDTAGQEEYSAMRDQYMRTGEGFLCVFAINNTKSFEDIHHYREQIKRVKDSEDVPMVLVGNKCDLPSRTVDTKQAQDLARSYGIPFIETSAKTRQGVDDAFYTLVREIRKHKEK
Sequence of KRas G12V (P01116 1-169 isoform P01116-2 G12V): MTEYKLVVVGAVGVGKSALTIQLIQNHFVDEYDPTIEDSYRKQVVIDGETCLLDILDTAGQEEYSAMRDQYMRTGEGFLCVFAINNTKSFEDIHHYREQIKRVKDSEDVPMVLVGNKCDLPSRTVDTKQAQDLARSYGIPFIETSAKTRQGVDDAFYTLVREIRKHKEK
Sequence of KRas G12C (P01116 1-169 isoform P01116-2 G12C): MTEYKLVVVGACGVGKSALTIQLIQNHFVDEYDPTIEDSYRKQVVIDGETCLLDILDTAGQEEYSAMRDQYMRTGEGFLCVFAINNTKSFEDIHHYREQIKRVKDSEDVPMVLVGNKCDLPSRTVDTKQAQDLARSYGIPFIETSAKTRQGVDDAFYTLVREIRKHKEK
Sequence of KRas WT (P01116 1-169 isoform P01116-2): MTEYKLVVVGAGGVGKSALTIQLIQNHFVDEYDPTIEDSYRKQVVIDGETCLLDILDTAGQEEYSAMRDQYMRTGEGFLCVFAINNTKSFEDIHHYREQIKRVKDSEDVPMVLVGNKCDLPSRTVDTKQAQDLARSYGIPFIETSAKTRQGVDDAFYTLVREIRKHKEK

| Compound | pIC50 (KRas G12D) | pIC50 (KRas G12V) | pIC50 (KRas G12R) | pIC50 (KRas G12C) | pIC50 (KRas WT) | pIC50 (pERK in MKN1 cells) | pIC50 (pERK in PSN1 cells) | pIC50 (pERK in ASPC1 cells) | pIC50 (pERK in H727 cells) | pIC50 (pERK in A549 cells) | pIC50 (pERK in H460 cells) | pIC50 (pERK in HCT116 cells) | pIC50 (pERK in H358 cells) |
| --- | --- | --- | --- | --- | --- | --- | --- | --- | --- | --- | --- | --- | --- |
| CCc1c(F)ccc2cc(O)cc(-c3ncc4c(N5CCCC6(CNS(=O)(=O)N6)C5)nc(OC[C@@]56CCCN5C[C@H](F)C6)nc4c3F)c12 (stereo partly drawn) [Example 330, 7-(7-(8-ethyl-7-fluoro-3-hydroxynaphthalen-1-yl)-8-fluoro-2-(((2R,7aS)-2-fluorohexahydro-1H-pyrrolizin-7a-yl)methoxy)pyrido[4,3-d]pyrimidin-4-yl)-2-thia-1,3,7-triazaspiro[4.5]decane 2,2-dioxide] | ≥ 8.70 | ≥ 8.70 | ≥ 8.70 | ≥ 8.70 | ≥ 8.70 | 8.10 | 6.52 | 7.54 | 7.21 | 7.08 | 7.28 | 7.24 | 7.96 |
| Oc1cc(-c2ncc3c(N4CCCC5(CC(O)C5)C4)nc(OC[C@@]45CCCN4C[C@H](F)C5)nc3c2F)c2c(Cl)c(F)ccc2c1 (stereo partly drawn) [Example 425, 6-(7-(8-chloro-7-fluoro-3-hydroxynaphthalen-1-yl)-8-fluoro-2-(((2R,7aS)-2-fluorohexahydro-1H-pyrrolizin-7a-yl)methoxy)pyrido[4,3-d]pyrimidin-4-yl)-6-azaspiro[3.5]nonan-2-ol] | ≥ 8.70 | ≥ 8.70 | ≥ 8.70 |  |  | 8.30 | 6.04 | 7.38 | 7.43 | 7.27 | 7.00 | 7.14 | 7.92 |
| CN(C)C(=O)c1cc2n(n1)CCCN(c1nc(OC[C@@]34CCCN3C[C@H](F)C4)nc3c(F)c(-c4cc(O)cc5ccc(F)c(Cl)c45)ncc13)C2 [Example 427, 5-(7-(8-chloro-7-fluoro-3-hydroxynaphthalen-1-yl)-8-fluoro-2-(((2R,7aS)-2-fluorohexahydro-1H-pyrrolizin-7a-yl)methoxy)pyrido[4,3-d]pyrimidin-4-yl)-N,N-dimethyl-5,6,7,8-tetrahydro-4H-pyrazolo[1,5-a][1,4]diazepine-2-carboxamide] | ≥ 8.70 | ≥ 8.70 | ≥ 8.70 |  |  | 7.08 | 5.11 | 7.49 | 7.23 | 6.42 | 6.06 | 6.04 | 7.28 |
| CCc1c(F)ccc2cc(O)cc(-c3ncc4c(N5CCCn6nc(C(=O)N7CCN(C)CC7)cc6C5)nc(OC[C@@]56CCCN5C[C@H](F)C6)nc4c3F)c12 [Example 477, (5-(7-(8-ethyl-7-fluoro-3-hydroxynaphthalen-1-yl)-8-fluoro-2-(((2R,7aS)-2-fluorotetrahydro-1H-pyrrolizin-7a(5H)-yl)methoxy)pyrido[4,3-d]pyrimidin-4-yl)-5,6,7,8-tetrahydro-4H-pyrazolo[1,5-a][1,4]diazepin-2-yl)(4-methylpiperazin-1-yl)methanone] | ≥ 8.70 | ≥ 8.70 | ≥ 8.70 |  |  | 7.17 | ≤ 5.00 | 7.21 | 6.34 | 6.06 | 5.80 | 5.55 | 6.74 |
| CCc1c(F)ccc2cc(O)cc(-c3ncc4c(N5CCOCC(C)(CO)C5)nc(OC[C@@]56CCCN5C[C@H](F)C6)nc4c3F)c12 (stereo partly drawn) [Example 496, 5-ethyl-6-fluoro-4-(8-fluoro-2-(((2R,7aS)-2-fluorotetrahydro-1H-pyrrolizin-7a(5H)-yl)methoxy)-4-(6-(hydroxymethyl)-6-methyl-1,4-oxazepan-4-yl)pyrido[4,3-d]pyrimidin-7-yl)naphthalen-2-ol] | 7.62 | 7.96 | 8.22 |  |  | 7.17 | 5.08 | 7.02 | 6.39 | 6.58 | 6.61 | 6.28 | 6.93 |
| CCc1c(F)ccc2cc(O)cc(-c3ncc4c(N5CCOC[C@@]6(C5)CC6(F)F)nc(OC[C@@]56CCCN5C[C@H](F)C6)nc4c3F)c12 [Example 498, 4-(4-((S)-1,1-difluoro-5-oxa-8-azaspiro[2.6]nonan-8-yl)-8-fluoro-2-(((2R,7aS)-2-fluorohexahydro-1H-pyrrolizin-7a-yl)methoxy)pyrido[4,3-d]pyrimidin-7-yl)-5-ethyl-6-fluoronaphthalen-2-ol] | 8.30 | 8.52 | 8.52 |  |  | 7.89 | ≤ 5.00 | 7.33 | 7.19 | 7.32 | 7.18 | 6.77 | 7.68 |
| CCc1c(F)ccc2cc(O)cc(-c3ncc4c(N5CCCn6nc(C(=O)N(C)C)c(Cl)c6C5)nc(OC[C@@]56CCCN5C[C@H](F)C6)nc4c3F)c12 [Example 504, 3-chloro-5-(7-(8-ethyl-7-fluoro-3-hydroxynaphthalen-1-yl)-8-fluoro-2-(((2R,7aS)-2-fluorohexahydro-1H-pyrrolizin-7a-yl)methoxy)pyrido[4,3-d]pyrimidin-4-yl)-N,N-dimethyl-5,6,7,8-tetrahydro-4H-pyrazolo[1,5-a][1,4]diazepine-2-carboxamide] | ≥ 8.70 | ≥ 8.70 | ≥ 8.70 |  |  | 8.10 | 5.32 | 8.40 | 8.22 | 7.96 | 7.28 | 7.09 | 8.70 |
| CCc1c(F)ccc2cc(O)cc(-c3ncc4c(N5CCCC6(CCS(=O)(=O)C6)C5)nc(OC[C@@]56CCCN5C[C@H](F)C6)nc4c3F)c12 (stereo partly drawn) [Example 507, 7-(7-(8-ethyl-7-fluoro-3-hydroxynaphthalen-1-yl)-8-fluoro-2-(((2R,7aS)-2-fluorohexahydro-1H-pyrrolizin-7a-yl)methoxy)pyrido[4,3-d]pyrimidin-4-yl)-2-thia-7-azaspiro[4.5]decane 2,2-dioxide] | ≥ 8.70 | ≥ 8.70 | 8.40 |  |  | 8.15 | 5.71 | 7.60 | 6.58 | 6.46 | 6.75 | 6.47 | 7.40 |
| CCc1c(F)ccc2cc(O)cc(-c3ncc4c(N5CCC[C@@](C)(O)C5)nc(OC[C@@]56CCCN5[C@H](COC(=O)N5CCOCC5)CC6)nc4c3F)c12 [Example 511, ((3S,7aS)-7a-(((7-(8-ethyl-7-fluoro-3-hydroxynaphthalen-1-yl)-8-fluoro-4-((R)-3-hydroxy-3-methylpiperidin-1-yl)pyrido[4,3-d]pyrimidin-2-yl)oxy)methyl)hexahydro-1H-pyrrolizin-3-yl)methyl morpholine-4-carboxylate] | ≥ 8.70 | ≥ 8.70 | ≥ 8.70 |  |  | 8.70 | 5.98 | 8.10 | 7.60 | 7.64 | 7.57 | 7.35 | 8.22 |
| CCc1c(F)ccc2cc(O)cc(-c3ncc4c(N5CCC[C@@](C)(O)C5)nc(OC[C@@]56CCCN5[C@@H](COC(=O)N(C)C)CC6)nc4c3F)c12 [Example 512, ((3R,7aS)-7a-(((7-(8-ethyl-7-fluoro-3-hydroxynaphthalen-1-yl)-8-fluoro-4-((R)-3-hydroxy-3-methylpiperidin-1-yl)pyrido[4,3-d]pyrimidin-2-yl)oxy)methyl)hexahydro-1H-pyrrolizin-3-yl)methyl dimethylcarbamate] | 8.30 | 8.30 | 8.10 |  |  | 7.85 | 5.55 | 7.26 | 7.10 | 7.17 | 6.89 | 6.54 | 7.28 |
